Here are results for 23 compounds from patent US20240254119A1 (THIRD HARMONIC BIO, INC., priority 2022, published 2024).

Data set [1] concerns the target T1, BCRP (BCRP-MDCKII monolayer) (Homo sapiens, UniProt Q9UNQ0).
T1 construct: host or cells: MDCKII (canine kidney) cells
T1 sequence (Q9UNQ0 1-655): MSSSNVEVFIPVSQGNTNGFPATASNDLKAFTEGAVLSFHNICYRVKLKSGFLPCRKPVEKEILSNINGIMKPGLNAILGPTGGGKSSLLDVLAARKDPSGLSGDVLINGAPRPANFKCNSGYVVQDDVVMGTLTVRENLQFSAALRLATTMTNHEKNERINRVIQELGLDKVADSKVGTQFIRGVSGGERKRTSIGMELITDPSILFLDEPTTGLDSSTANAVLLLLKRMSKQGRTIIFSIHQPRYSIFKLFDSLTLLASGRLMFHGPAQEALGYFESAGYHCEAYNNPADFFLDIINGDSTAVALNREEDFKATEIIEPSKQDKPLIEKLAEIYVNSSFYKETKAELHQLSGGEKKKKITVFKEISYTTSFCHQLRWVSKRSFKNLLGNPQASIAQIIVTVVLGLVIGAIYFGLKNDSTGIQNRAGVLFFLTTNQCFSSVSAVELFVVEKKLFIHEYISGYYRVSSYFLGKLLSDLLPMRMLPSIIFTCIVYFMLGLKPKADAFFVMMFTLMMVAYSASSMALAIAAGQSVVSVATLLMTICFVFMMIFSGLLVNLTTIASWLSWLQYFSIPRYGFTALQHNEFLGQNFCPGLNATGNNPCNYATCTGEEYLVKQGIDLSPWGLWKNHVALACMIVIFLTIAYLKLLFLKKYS
Description: MDCKII-BCRP bidirectional transport assay. In kind it is in vitro ADME. The method, then:
Exemplary compounds were tested for cell permeability in Caco-2, MDCKII-MDR1 and MDCKII-BCRP cell lines with efflux transporter engagement inferred from the efflux ratios determined. Procedures and results are described below. […] This feature of certain compounds is in part due to efflux transporter engagement. See, for instance, exemplary such compounds included in data tables below.
The reference compound Teriflunomide and test compounds are tested in the bidirectional assay. Test compound and reference compounds incubations were tested in duplicates.
The transport assay can be performed between days 12 to day 15 using ready to use PreadyPort™ BCRP-MDCKII monolayer in 96 well plate.
The medium was aspirated from the apical and basal compartments and 75 and 235 μL assay buffer was added to each of the 96 wells of apical and basal compartments of the PreadyPort™ plate.
The plates were pre-incubated for 15 min at 37° C. with 5% CO2 in humidified atmosphere. After preincubation the assay buffer was removed from the apical and basal inserts of the plate.
In apical to basolateral (A→B) transport, 75 μL of test or reference compound working solution to apical inserts and 235 μL of blank assay buffer were added to the corresponding basal compartments.
In basolateral to apical transport, 235 μL of test or reference compound working solution to the basal compartments and 75 μL of blank assay buffer solution were added to corresponding apical inserts.
The sandwich plate was incubated for 120 min in incubator at 5% CO2 and 37° C.
After incubation, 60 μL was transferred from receiver and donor compartments to collection plate.
For donor and C0 samples 20-fold dilution was accomplished by mixing 60 μL of collected sample with 1140 μL of transport buffer and from that solution aliquot 60 μL transfer Both receiver and donor samples were processed by adding […] of acetonitrile containing internal standard (60 μL of sample+240 μL of acetonitrile containing glyburide as internal standard, 125 ng/mL) and vortexing the samples. The compound concentration was measured in all samples using respective calibration standards by LC-MS/MS.
Calculate the Papp and recovery using the given formula:
[formula] [formula] • Where: dQ/dt=Permeability rate in μM/see • C0=Initial concentration in μM • A=Membrane surface area (0.33 cm^2) • V=Volume of receiver chamber • Cend, a=concentration in acceptor well at end of incubation • Cend, d=concentration in donor well at end of incubation • CHBSS=loading concentration measured in HBSS

The next data set is described as follows: Kinetic solubility assay. Conditions: kinetic solubility, 50 mM PB (pH 7.4), shaken 24 hours at RT. Type of data set: physicochemical. The method, then: 10 μL of 10 mM in DMSO of test article and control compounds was added into lower chambers of whatman miniuniprep vials, respectively. 490 μL of 50 mM PB (pH 7.4) was then added into lower chambers of the whatman miniuniprep vials, respectively. […] Miniuniprep vials were shaken for 24 hours at RT at the speed of 800 rpm, centrifuged 20 minutes (eg. 4000 rpm) and the filtrates were analyzed by UPLC-UV/HPLC-UV system to calculate the concentration with standard curve.
Filter Membrane: Miniuniprep (PTFE Filter Media with Polypropylene Housing) Cat. No. UN203NPUORG, GE Halthcare Whatman.

In data set [2] the target is T2, wtKIT (Homo sapiens, UniProt P10721).
T2 construct: 1888289AM in the reaction mixtures
Description: HTRF biochemical assay, wtKIT (phosphorylation of a peptide substrate). Conditions: Table 4. Summed up:
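HTRF read-out of FAM-peptide (1 µM) phosphorylation after anti-phosphotyrosine antibody addition and EDTA quench. Reaction: 5.0 nM wtKIT, 400 µM ATP, 10 mM Mn2+, HEPES pH 7.5, 1% DMSO, 3 h, 25 °C; optional enzyme-compound preincubation; enzyme level set for 10-20% conversion.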

Data set [3] deals with T2, wtKIT. Nature of the data set: Caliper biochemical assay, wtKIT. Conditions: Table 6, read-out: KIT Biochemical IC50 avg. The method, then:
Enzyme, substrate, and cofactors (ATP and Mn^2+) are combined in a well of a microtiter plate and incubated for 3 hours at 25° C. At the end of the incubation, the reaction is quenched by the addition of an EDTA-containing buffer. Substrate and product are separated electrophoretically using the microfluidic-based LabChip 3000 Drug Discovery System from Caliper Life Sciences* and quantitated by fluorescence intensity.
The substrate used in the CSF-1R and PDGFRα assay is FAM-[…]-CONH2 (FAM is carboxyfluorescein). Peptide should be >95% purity. The substrate for the KIT assay is FAM-[…]-NH2.
• 1. To a well of a 384-well plate add 5 μL of 2× enzyme buffer (or control) • 2. Add 100 nL of 100× compound. • 3. Add 5 μL of 2× substrate buffer. • 4. Incubate plate at 25° C. for 3 hours. • 5. Add 10 uL of […]. • 6. Read plate LabChip 3000 Drug Discovery System
• 3 hours at 25° C. where 100% Inhibitor: No enzyme.
• 100 mM HEPES, pH 7.5 0.1% BSA • 0.01% Triton X-100 • 1 mM DTT • 10 mM MnCl2 • 10 μM Sodium Orthovanadate • 10 μM Beta-Glycerophosphate • 400 μM ATP • 1% DMSO (from compound) • 1 μM FAM-[…]-CONH2 5.0 nM wtKIT Enzyme (1888289AM)* • *Specific activity may vary from lot to lot. Enzyme concentration may need to be adjusted to yield 10-20% conversion of substrate to product.

pIC50: −log10 of the molar value.

T2 sequence (P10721 26-976): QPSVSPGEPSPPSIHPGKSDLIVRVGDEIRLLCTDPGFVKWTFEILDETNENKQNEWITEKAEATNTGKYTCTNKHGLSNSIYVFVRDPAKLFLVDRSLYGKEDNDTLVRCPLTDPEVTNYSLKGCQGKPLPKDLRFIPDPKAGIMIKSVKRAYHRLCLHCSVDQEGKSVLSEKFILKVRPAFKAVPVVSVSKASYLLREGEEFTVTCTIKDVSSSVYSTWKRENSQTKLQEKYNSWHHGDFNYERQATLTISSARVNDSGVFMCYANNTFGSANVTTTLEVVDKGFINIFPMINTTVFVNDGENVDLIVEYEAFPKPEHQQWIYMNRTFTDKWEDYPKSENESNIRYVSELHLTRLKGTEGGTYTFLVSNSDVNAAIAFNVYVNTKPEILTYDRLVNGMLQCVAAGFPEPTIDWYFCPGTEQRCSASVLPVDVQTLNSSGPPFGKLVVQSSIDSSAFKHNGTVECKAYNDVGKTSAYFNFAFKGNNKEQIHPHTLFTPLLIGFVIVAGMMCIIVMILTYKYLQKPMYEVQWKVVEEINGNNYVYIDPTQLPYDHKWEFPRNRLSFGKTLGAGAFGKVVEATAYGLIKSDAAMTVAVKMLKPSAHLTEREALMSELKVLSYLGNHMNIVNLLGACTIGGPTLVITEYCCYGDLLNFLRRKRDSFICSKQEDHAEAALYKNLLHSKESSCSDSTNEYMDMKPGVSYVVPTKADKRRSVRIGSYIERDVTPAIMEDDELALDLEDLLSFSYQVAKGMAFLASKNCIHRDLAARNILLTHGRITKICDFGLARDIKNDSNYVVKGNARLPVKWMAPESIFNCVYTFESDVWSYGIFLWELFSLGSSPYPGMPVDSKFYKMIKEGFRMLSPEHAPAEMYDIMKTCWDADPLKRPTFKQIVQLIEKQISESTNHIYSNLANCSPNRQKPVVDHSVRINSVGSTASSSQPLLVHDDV

Take `Cc1ccc(-c2noc(C3CCC3F)n2)cc1NC(=O)c1cnc2ccccn12` (stereo not shown) [Compound I-400]: in data set [1], the “MDCK-BCRP: Efflux Ratio” value is 1.44. Moreover, the “MDCK-BCRP: Papp A-B” value in data set [1] (apical to basolateral) is reported as 11.7 10^−6 cm/s. In “Kinetic solubility assay”, the “Solubility (μM)” value is listed as “**** (a solubility less than or equal to 2 μM)”.

For `Cc1ccc(-c2noc([C@H]3CCN3S(=O)(=O)c3cccnc3)n2)cc1NC(=O)c1cnc2ccccn12` [Compound I-233], the pIC50 on wtKIT [2] and on wtKIT [3] was 6.30 to 7.30 in each case. The “Solubility (μM)” value in “Kinetic solubility assay” is “** (a solubility greater than 10 μM and less than or equal to 50 μM)”.

In the case of `Cc1nc(-c2ccc(C)c(NC(=O)c3cnc4ccc(N5CCOCC5)cn34)c2)no1` [Compound I-218], the pIC50 on wtKIT [2] and on wtKIT [3] was at least 7.30 each time. Also, in the data set “Kinetic solubility assay”, the “Solubility (μM)” value was “**** (a solubility less than or equal to 2 μM)”.

Take `COc1ccc(Nc2ccn3c(C(=O)Nc4cc(-c5noc([C@H]6C[C@@H]6F)n5)ccc4C)cnc3c2)cc1OC` [Compound I-285]: the pIC50 on wtKIT [3] is at least 7.30. In “Kinetic solubility assay”, the “Solubility (μM)” value is reported as “**** (a solubility less than or equal to 2 μM)”.

Consider `Cc1ccc(-c2noc([C@H]3CCN3)n2)cc1NC(=O)c1cnc2cc(C#N)ccn12` [Compound I-244], for which the pIC50 at wtKIT [2] and on wtKIT [3] was 6.30 to 7.30 throughout. Besides, the “Solubility (μM)” value in the data set “Kinetic solubility assay” is reported as “* (a solubility greater than 50 μM)”.

On to `Cc1ccc(-c2noc(C3C(C)CC3C)n2)cc1NC(=O)c1cnc2ccccn12` (stereo not shown) [Compound I-315], for which the pIC50 at wtKIT [3] was at least 7.30. For the same compound, the “Solubility (μM)” value in the data set “Kinetic solubility assay” is listed as “**** (a solubility less than or equal to 2 μM)”.

Take `Cc1ccc(-c2noc([C@H]3C[C@@H]3F)n2)cc1NC(=O)c1cnc2cc(C(N)=O)ccn12` [Compound I-207]: the pIC50 at wtKIT [2] and on wtKIT [3] was at least 7.30 in each case. The “Solubility (μM)” value in the data set “Kinetic solubility assay” is given as “**** (a solubility less than or equal to 2 μM)”.

For `COC(=O)N1CC(c2nc(-c3ccc(C)c(NC(=O)c4cnc5ccc(OCCO)cn45)c3)no2)C1` [Compound I-247], the values for the pIC50 on wtKIT [2] and on wtKIT [3] were 6.30 to 7.30 and at least 7.30, respectively. The “Solubility (μM)” value in “Kinetic solubility assay” was “*** (a solubility greater than 2 μM and less than or equal to 10 μM)”.

Consider `Cc1cc(C)cc(Nc2ccn3c(C(=O)Nc4cc(-c5noc([C@H]6C[C@@H]6F)n5)ccc4C)cnc3c2)c1` [Compound I-292], for which, on wtKIT [3], the pIC50 is at least 7.30. Besides, in the data set “Kinetic solubility assay”, the “Solubility (μM)” value was “*** (a solubility greater than 2 μM and less than or equal to 10 μM)”.

With `Cc1ccc(-c2noc(C3(C)CCCC3(F)F)n2)cc1NC(=O)c1cnc2ccccn12` (racemic) [Compound I-374], the pIC50 at wtKIT [3] was at least 7.30. In the data set “Kinetic solubility assay”, the “Solubility (μM)” value is given as “**** (a solubility less than or equal to 2 μM)”.

For `Cc1ccc(-c2noc([C@H]3C[C@@H]3F)n2)cc1NC(=O)c1cnc2ccc(Nc3ccc4c(c3)OCCO4)cn12` [Compound I-290], the pIC50 at wtKIT [3] was at least 7.30. For the same compound, in “Kinetic solubility assay”, the “Solubility (μM)” value is “*** (a solubility greater than 2 μM and less than or equal to 10 μM)”.

Take `Cc1ccc(-c2noc(C3CC3F)n2)cc1NC(=O)c1cnc2ccc(Nc3ccc(OC(F)F)cc3)cn12` (stereo not shown) [Compound I-284]: the pIC50 at wtKIT [3] is at least 7.30. Further, the “Solubility (μM)” value in the data set “Kinetic solubility assay” is “*** (a solubility greater than 2 μM and less than or equal to 10 μM)”.

Turning to `Cc1ccc(-c2noc([C@@H]3CC(=O)N3)n2)cc1NC(=O)c1cnc2ccccn12` (racemic) [Compound I-224], the figures for the pIC50 on wtKIT [2] and on wtKIT [3] were 6.30 to 7.30 and at least 7.30, respectively. The “Solubility (μM)” value in “Kinetic solubility assay” is reported as “* (a solubility greater than 50 μM)”.

For the compound `Cc1nc(-c2ccc(C)c(NC(=O)c3cnc4ccc(N5CCCCC5)cn34)c2)no1` [Compound I-206], the pIC50 at wtKIT [2] and on wtKIT [3] was at least 7.30 in each case. Besides, the “Solubility (μM)” value in “Kinetic solubility assay” was “**** (a solubility less than or equal to 2 μM)”.

Consider `Cc1ccc(-c2noc([C@H]3C[C@@H]3F)n2)cc1NC(=O)c1cnc2ccc(Cl)nn12` [Compound I-289], for which, on wtKIT [3], the pIC50 was 6.30 to 7.30. Further, in the data set “Kinetic solubility assay”, the “Solubility (μM)” value is “*** (a solubility greater than 2 μM and less than or equal to 10 μM)”.

`Cc1ccc(-c2noc([C@H]3CC(=O)CN3)n2)cc1NC(=O)c1cnc2ccccn12` [Compound I-223]: the pIC50 is 6.30 to 7.30 at wtKIT [2] and at least 7.30 on wtKIT [3].

As for `Cc1ccc(-c2noc([C@H]3C[C@@H]3F)n2)cc1NC(=O)c1cnc2cc(N3CCC(C)CC3)ccn12` [Compound I-303], the pIC50 at wtKIT [3] is at least 7.30. For the same compound, the “Solubility (μM)” value in “Kinetic solubility assay” was “**** (a solubility less than or equal to 2 μM)”.

Regarding `COc1ccn2c(C(=O)Nc3cccc(-c4noc(CC5CC5(F)F)n4)c3F)cnc2c1` (single isomer, unassigned) [I-54], the “Solubility (μM)” value in “Kinetic solubility assay” was “**** (a solubility less than or equal to 2 μM)”.

On to `CC(C)(C)OC(=O)N1CC(c2nc(-c3ccc(Cl)c(NC(=O)c4cnc5ccccn45)c3)no2)C1` [Compound I-333], for which the negative logarithm of the IC50 (pIC50) on wtKIT [3] was at least 7.30. The “Solubility (μM)” value in “Kinetic solubility assay” was “**** (a solubility less than or equal to 2 μM)”.

For the compound `COc1ccc2ncc(C(=O)Nc3cc(-c4noc(CC(O)C(F)F)n4)ccc3C)n2c1` (single isomer, unassigned) [I-65], the “Solubility (μM)” value in “Kinetic solubility assay” was “**** (a solubility less than or equal to 2 μM)”.

Take `CC(=O)NCc1ccc2ncc(C(=O)Nc3cc(-c4noc([C@H]5C[C@@H]5F)n4)ccc3C)n2c1` [I-9]: in “Kinetic solubility assay”, the “Solubility (μM)” value is “**** (a solubility less than or equal to 2 μM)”.

As for `O=C(Nc1cc(-c2noc(C3CC3F)n2)ccc1Cl)c1cnc2cc(COCCO)ccn12` (stereo not shown) [I-56], the “Solubility (μM)” value in the data set “Kinetic solubility assay” was “**** (a solubility less than or equal to 2 μM)”.

Consider `O=C(Nc1cc(-c2noc(C3COC3)n2)ccc1Cl)c1cnc2cc(C(F)F)ccn12` [I-38], for which the “Solubility (μM)” value in the data set “Kinetic solubility assay” is listed as “**** (a solubility less than or equal to 2 μM)”.
